Laboratory results from paper PMC10866072, “Design, synthesis, molecular modelling and biological evaluation of novel 6-amino-5-cyano-2-thiopyrimidine derivatives as potent anticancer agents against leukemia and apoptotic inducers” (Journal of Enzyme Inhibition and Medicinal Chemistry, 2024).

Legend:
[1] = test system: CAKI-1; format: cell-based; settings: one dose 10^-5 M, 48 h
[2] = test system: MDA-MB-435; format: cell-based; settings: one dose 10^-5 M, 48 h
[3] = test system: LOX IMVI; format: cell-based; settings: one dose 10^-5 M, 48 h
[4] = test system: SNB-19; format: cell-based; settings: one dose 10^-5 M, 48 h
[5] = test system: 786-0; format: cell-based; settings: one dose 10^-5 M, 48 h
[6] = test system: A549/ATCC; format: cell-based; settings: one dose 10^-5 M, 48 h
[7] = test system: SF-295; format: cell-based; settings: one dose 10^-5 M, 48 h
[8] = test system: UACC-257; format: cell-based; settings: one dose 10^-5 M, 48 h
[9] = test system: HOP-62; format: cell-based; settings: one dose 10^-5 M, 48 h
[10] = test system: HCT-116; format: cell-based; settings: one dose 10^-5 M, 48 h
[11] = test system: SF-268; format: cell-based; settings: one dose 10^-5 M, 48 h
[12] = test system: SNB-75; format: cell-based; settings: one dose 10^-5 M, 48 h
[13] = test system: OVCAR-8; format: cell-based; settings: one dose 10^-5 M, 48 h
[14] = test system: DU-145; format: cell-based; settings: one dose 10^-5 M, 48 h
[15] = test system: SK-MEL-28; format: cell-based; settings: one dose 10^-5 M, 48 h
[16] = test system: NCI-H460; format: cell-based; settings: one dose 10^-5 M, 48 h
[17] = test system: KM12; format: cell-based; settings: one dose 10^-5 M, 48 h
[18] = test system: PC-3; format: cell-based; settings: one dose 10^-5 M, 48 h
[19] = test system: HS 578T; format: cell-based; settings: one dose 10^-5 M, 48 h; HS 578T
[20] = test system: TK-10; format: cell-based; settings: one dose 10^-5 M, 48 h
[21] = test system: SK-MEL-5; format: cell-based; settings: one dose 10^-5 M, 48 h
[22] = test system: NCI-H226; format: cell-based; settings: one dose 10^-5 M, 48 h
[23] = test system: EKVX; format: cell-based; settings: one dose 10^-5 M, 48 h
[24] = test system: K-562; format: cell-based; settings: one dose 10^-5 M, 48 h
[25] = test system: UACC-62; format: cell-based; settings: one dose 10^-5 M, 48 h
[26] = test system: MDA-MB-468; format: cell-based; settings: one dose 10^-5 M, 48 h
[27] = test system: NCI-H23; format: cell-based; settings: one dose 10^-5 M, 48 h
[28] = test system: MOLT-4; format: cell-based; settings: one dose 10^-5 M, 48 h
[29] = test system: SK-OV-3; format: cell-based; settings: one dose 10^-5 M, 48 h
[30] = test system: SN12C; format: cell-based, human; settings: one dose 10^-5 M, 48 h
[31] = test system: HCT-15; format: cell-based; settings: one dose 10^-5 M, 48 h
[32] = test system: ACHN; format: cell-based; settings: one dose 10^-5 M, 48 h
[33] = test system: RPMI-8226; format: cell-based; settings: one dose 10^-5 M, 48 h
[34] = test system: SK-MEL-2; format: cell-based; settings: one dose 10^-5 M, 48 h
[35] = test system: OVCAR-4; format: cell-based; settings: one dose 10^-5 M, 48 h
[36] = test system: U251; format: cell-based; settings: one dose 10^-5 M, 48 h
[37] = test system: T-47D; format: cell-based; settings: one dose 10^-5 M, 48 h
[38] = test system: OVCAR-3; format: cell-based; settings: one dose 10^-5 M, 48 h
[39] = test system: MCF7; format: cell-based; settings: one dose 10^-5 M, 48 h
[40] = test system: SW-620; format: cell-based; settings: one dose 10^-5 M, 48 h
[41] = test system: HL-60(TB); format: cell-based; settings: one dose 10^-5 M, 48 h
[42] = test system: SR; format: cell-based; settings: one dose 10^-5 M, 48 h
[43] = test system: full NCI 60 cell lines panel
[44] = test system: CCRF-CEM; format: cell-based; settings: one dose 10^-5 M, 48 h
[45] = test system: MDA-MB-231/ATCC; format: cell-based; settings: one dose 10^-5 M, 48 h
[46] = test system: M14; format: cell-based; settings: one dose 10^-5 M, 48 h
[47] = test system: IGROV1; format: cell-based; settings: one dose 10^-5 M, 48 h
[48] = test system: OVCAR-5; format: cell-based; settings: one dose 10^-5 M, 48 h
[49] = test system: HOP-92; format: cell-based; settings: one dose 10^-5 M, 48 h
[50] = test system: HCC-2998; format: cell-based; settings: one dose 10^-5 M, 48 h
[51] = test system: HT29; format: cell-based; settings: one dose 10^-5 M, 48 h
[52] = test system: MALME-3M; format: cell-based; settings: one dose 10^-5 M, 48 h
[53] = test system: NCI-H522; format: cell-based; settings: one dose 10^-5 M, 48 h
[54] = test system: UO-31; format: cell-based; settings: one dose 10^-5 M, 48 h
[55] = test system: RXF 393; format: cell-based; settings: one dose 10^-5 M, 48 h
[56] = test system: SF-539; format: cell-based; settings: one dose 10^-5 M, 48 h
[57] = test system: A498; format: cell-based; settings: one dose 10^-5 M, 48 h

Substance: 3-Amino-4–(4-chlorophenyl)-1H-pyrazolo[3,4-d] pyrimidine-6-thiol [Compound 3b]
- % growth [1]: 93.47%
- % growth [2]: 98.24%
- % growth [3]: 103.05%
- % growth [4]: 92.80%
- % growth [5]: 99.34%
- % growth [6]: 100.87%
- % growth [7]: 89.90%
- % growth [8]: 106.44%
- % growth [9]: 106.23%
- % growth [10]: 102.04%
- % growth [11]: 103.53%
- % growth [12]: 94.54%
- % growth [13]: 104.96%
- % growth [14]: 101.49%
- % growth [15]: 107.34%
- % growth [16]: 107.05%
- % growth [17]: 100.80%
- % growth [18]: 101.93%
- % growth [19]: 111.10%
- % growth [20]: 114.88%
- % growth [21]: 95.82%
- % growth [22]: 107.48%
- % growth [23]: 96.85%
- % growth [24]: 94.65%
- % growth [25]: 100.93%
- % growth [26]: 106.46%
- % growth [27]: 103.30%
- % growth [28]: 92.74%
- % growth [29]: 106.45%
- % growth [30]: 97.55%
- % growth [31]: 103.06%
- % growth [32]: 102.63%
- % growth [33]: 90.84%
- % growth [34]: 108.20%
- % growth [35]: 98.54%
- % growth [36]: 101.98%
- % growth [37]: 86.49%
- % growth [38]: 113.31%
- % growth [39]: 94.30%
- % growth [40]: 102.78%
- % growth [41]: 82.04%
- % growth [42]: 91.21%
- activity on all 60 cancer cell lines tested (in words) ([43]; one dose): weak activity
- Mean % growth ([43]; one dose 10^-5 M, 48 h, mean over all cell lines): 100.23%
- % growth [44]: 92.49%
- % growth [45]: 98.65%
- % growth [46]: 107.99%
- % growth [47]: 96.70%
- % growth [48]: 108.35%
- % growth [49]: 100.46%
- % growth [50]: 100.20%
- % growth [51]: 95.28%
- % growth [52]: 100.39%
- % growth [53]: 84.30%
- % growth [54]: 92.69%
- % growth [55]: 103.75%
- % growth [56]: 98.83%
- % growth [57]: 109.21%
